Molecular target: T1, human renin (Homo sapiens, UniProt P00797)
T1 construct: A human plasma pool is used as the source of both the substrate (angiotensinogen) and the enzyme (renin); from tissue; host or cells: pooled human plasma
T1 sequence (P00797 67-406): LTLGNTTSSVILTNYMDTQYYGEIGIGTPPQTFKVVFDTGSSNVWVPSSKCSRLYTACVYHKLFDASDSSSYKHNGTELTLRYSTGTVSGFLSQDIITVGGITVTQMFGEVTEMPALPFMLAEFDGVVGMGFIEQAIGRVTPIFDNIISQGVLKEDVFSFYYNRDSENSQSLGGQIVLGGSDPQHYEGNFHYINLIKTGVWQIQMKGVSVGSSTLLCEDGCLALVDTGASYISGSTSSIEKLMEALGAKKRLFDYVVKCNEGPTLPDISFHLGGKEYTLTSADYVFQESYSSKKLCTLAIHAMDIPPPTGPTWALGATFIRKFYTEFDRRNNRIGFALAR
Assay: plasma renin assay (inhibition of human renin; angiotensin I generated, measured by radioimmunoassay)
Format: biochemical
Conditions: human plasma pool, pH 6.0, 2 h incubation at 37°
Experimental: The assay is performed as follows: The test compound (i.e. the inhibitor) is dissolved in dimethylsulfoxide (1 mM stock solution) and diluted with an aqueous buffer solution of 270 mM 2-(N-morpholino)ethanesulfonic acid and 1% human serum albumin (pH 5.85, also containing dimercaprol and 8-hydroxyquinoline sulfate in accordance with the instructions of the RIA kit noted below) to give an assay mixture in which the final dimethylsulfoxide content is 1% (v/v).
A human plasma pool is used as the source of both the substrate (angiotensinogen) and the enzyme (renin). The reaction is initiated by the addition of 50 μL of human plasma pool to 50 μL of various concentrations of inhibitor in the 1% dimethylsulfoxide assay buffer. The plasma renin activity is measured by the amount of angiotensin I generated at pH 6.0 following a 2 h incubation at 37°.
Quantitation of angiotensin I is performed by radioimmunoassay (RIA kit from New England Nuclear-Dupont, Mississauga, ON, Canada). The enzymatic activity of renin is expressed in ng of angiotensin I generated (/mL/2 h). The extent of inhibition of the reaction is determined from the amount of angiotensin I generated in reference to a control prepared without inhibitor. Nonlinear regression analysis is used to calculate the IC50 values, i.e. the molar concentration of the test compound required to cause a 50% inhibition of the enzyme activity.

IC50 [nM] | Structure (SMILES)
21 | CC(C)C[C@H](O)[C@H](O)[C@H](CC1CCCCC1)NC(=O)[C@@H](CC(=O)N(Cc1ccc2c(c1)OCO2)CC1(O)CCCCC1)CC1CC1 [Compound 3, N^4-[(1-hydroxycyclohexyl)methyl]-N^4-[(4,5-methylenedioxyphenyl)methyl]-N^1-[1(S)-(cyclohexylmethyl)-2(R),3(S)-dihydroxy-5-methylhexyl]-2(R)-(cyclopropylmethyl)butanediamide]
37 | Cc1ccccc1CN(CC(C)(C)O)C(=O)C[C@@H](Cc1csc(N)n1)C(=O)N[C@@H](CC1CCCCC1)[C@@H](O)[C@@H](O)CC(C)C [Compound 57, N^4-[(2-methylphenyl)methyl]-N^4-(2-hydroxy-2-methylpropyl)-N^1-[1(S)-(cyclohexylmethyl)-2(R),3(S)-dihydroxy-5-methylhexyl]-2(R)-[(2-amino-4-thiazolyl)methyl]butanediamide]
35 | CC(C)C[C@H](O)[C@H](O)[C@H](CC1CCCCC1)NC(=O)[C@@H](CC(=O)N(CCO)CC1(O)CCCCC1)CC1CC1 [Compound 5, N^4-[(1-hydroxycyclohexyl)methyl]-N^4-(2-hydroxyethyl)-N^1-[1(S)-(cyclohexylmethyl)-2(R),3(S)-dihydroxy-5-methylhexyl]-2(R)-(cyclopropylmethyl)butanediamide]
16 | CC(C)C[C@H](O)[C@H](O)[C@H](CC1CCCCC1)NC(=O)[C@@H](CC(=O)N(CC(=O)N(C)C)CC(O)C1CCCCC1)Cc1cscn1 (mixture of isomers) [Compound 42, N^4-[2-cyclohexyl-2(R,S)-hydroxyethyl]-N^4-[2-(dimethylamino)-2-oxoethyl]-N^1-[1(S)-(cyclohexylmethyl)-2(R),3(S)-dihydroxy-5-methylhexyl]-2(R)-(4-thiazolylmethyl)butanediamide]
31 | CC(C)C[C@H](O)[C@H](O)[C@H](CC1CCCCC1)NC(=O)[C@@H](CC(=O)N(Cc1ccncc1)CC1(O)CCCCC1)CC1CC1 [Compound 29]
72 | CC(C)C[C@H](O)[C@H](O)[C@H](CC1CCCCC1)NC(=O)[C@@H](CC(=O)NC[C@H](O)c1ccccc1)CC1CC1 [Compound 9, N^4-(R)-(2-hydroxy-2-phenylethyl)-N^1-[1(S)-(cyclohexylmethyl)-2(R),3(S)-dihydroxy-5-methylhexyl]-2(R)-(cyclopropylmethyl)butanediamide]
2 | CC(C)C[C@H](O)[C@H](O)[C@H](CC1CCCCC1)NC(=O)[C@@H](CC(=O)N(CC(=O)N(C)C)CC1(O)CCCCCC1)Cc1csc(N)n1 [Compound 53, N^4-[(1-hydroxycycloheptyl)methyl]-N^4-[2-(dimethylamino)-2-oxoethyl]-N^1-[1(S)-(cyclohexylmethyl)-2(R),3(S)-dihydroxy-5-methylhexyl]-2(R)-[(2-amino-4-thiazolyl)methyl]-butanediamide]
2 | COC1(CN(CC(=O)N(C)CCc2ccccn2)C(=O)C[C@@H](Cc2csc(N)n2)C(=O)N[C@@H](CC2CCCCC2)[C@@H](O)[C@@H](O)CC(C)C)CCCCC1 [Compound 62, N^4-[(1-methoxycyclohexyl)methyl]-N^4 -{2-{methyl[2-(2-pyridinyl)ethyl]amino}-2-oxoethyl}-N^1-[1(S)-(cyclohexylmethyl)-2(R),3(S)-dihydroxy-5-methylhexyl]-2(R)-[(2-amino-4-thiazolyl)methyl]butanediamide]
5 | CC(C)C[C@H](O)[C@H](O)[C@H](CC1CCCCC1)NC(=O)[C@@H](CC(=O)N(CC1CCCCCC1)CC(C)(C)O)Cc1cscn1 [Compound 51, N^4-(cycloheptylmethyl)-N^4-(2-hydroxy-2-methylpropyl)-N^1-[1(S)-(cyclohexylmethyl)-2(R),3(S)-dihydroxy-5-methylhexyl]-2(R)-(4-thiazolylmethyl)butanediamide]

From US5523315A, “N-(hydroxyethyl)butanediamide derivatives” (Bio-Mega/Boehringer Ingelheim Research Inc., priority 1993, dated 1996)
